Source: patent publication US7056938B1, “Method for scavenging radicals with urocanic acid, derivatives and analogues” (Academisch Ziekenhuis Bij De Univ., priority 1999, dated 2006)
Like-named read-outs stand apart in the source and are kept apart here. Marks after values point to notes of the source that are not given here.

What was measured:
[1] = system: ear swelling response from BALB/c mice; assay: inhibition of contact hypersensitivity, ear swelling response; conditions: for inhibition of CHS (in words): as ammonium salts
[2] = deoxyribose (dR) degradation test, hydroxyl radical scavenging; format: biochemical; conditions: for SECOND ORDER RATE CONSTANT for reaction with hydroxyl radicals: mean of n slopes, sodium phosphate buffer pH 7.2
Description: Trans-UCA, cis-UCA, related imidazoles and non-imidazole compounds were tested with regard to their ability to compete with deoxyribose to scavenge hydroxyl radicals. On exposure to hydroxyl radicals deoxyribose is degraded into malondialdehyde, which reacts with thiobarbituric acid to form a pink chromogen. Powerful hydroxyl-radical scavengers will compete with deoxyribose, resulting in a reduced amount of malondialdehyde. Ten compounds, UCA, UCA analogues, alanine and uric acid (FIG. 1) were tested on their ability to scavenge hydroxyl radicals.
Method: the deoxyribose (dR) degradation test. The test was analogous to an earlier described method. Briefly, the reactions were performed in 5 mL screw cap glass tubes in a final volume of 1.0 mL sodium phosphate buffer (50 mM; pH 7.2), containing 3.0 mM 2 deoxy-D-ribose, 0.5 mM hydrogen peroxide and one of the test compounds at graded concentrations. The reaction was started by the addition of premixed disodium EDTA and ferrous iron solution (final concentrations 0.5 mM and 0.2 mM, respectively). The mixture was left for 15 minutes at room temperature. After addition of 1.0 mL 1% thiobarbituric acid in 50 mM NaOH and 0.75 mL 2.8% trichloroacetic acid, the tubes were heated for 20 minutes in a boiling water bath. The pink color was read at 532 nm and reciprocal absorption values were plotted against the concentration of the test compound after subtraction of appropriate blanks. A series of six duplicate determinations from test compound dilutions was employed to construct a graph slope for the calculation of a rate constant value. The mean, SD, number of rate constants and the percentage of inhibition of deoxyribose degradation, calculated for each test compound, are listed. Results. All second-order rate constants for reaction with hydroxyl radicals and, in addition, the percentage inhibition of deoxyribose degradation with equimolar concentrations (3 mM) of scavenger are summarized in Table 1. Trans-UCA and cis-UCA are substantially more powerful in scavenging hydroxyl radicals (8.0 and 7.1×10^3 M^−1,s^−1, respectively), than the other 4-(5-)-substituted imidazoles, including L-histidine (2.6×10^2 M^−1,s^−1). L-histidine, the precursor of UCA, was included as a known moderate scavenger with structural similarities to UCA. L-alanine was used as a known poor scavenger. Trans-FAA was tested as a non-imidazole acrylic acid derivative, having a furan ring instead.
FIG. 2. A determination of the second order rate constants of trans-UCA and cis-UCA with hydroxyl radicals. The rate constant was derived from the slope of the line (k=slope×kdR×[dR]×A0), where A0 is the absorbance, measured in the absence of hydroxyl radical scavenger. KdR was taken as 3.1×10^9 M^−1,s^−1, derived from pulse radiolysis studies, and [dR]=3 mM. […] The other scavengers were studied similarly.

[3] = Fenton oxidation of UCA (Fe2+ / hydrogen peroxide, HPLC); format: physicochemical
Description: Trans-UCA and cis-UCA were separated from each other and from several UCA oxidation products on a 4.6×250 mm Alltima C18 and Luna C18 reversed-phase column (Alitech, Deerfield, Ill. and Phenomenex, Torrence, Calif., resp.) with a flow of 0.8 mL/min, delivered by P-3500 HPLC-pumps (Pharmacia, Uppsala, Sweden). Samples of 20 to 200 μL were injected by a Promis II autosampler (Spark Holland, Emmen, The Netherlands) and chromatographic data were recorded on an SP 4270 integrator (Spectra Physics, San Jose, Calif.). Peak area data from samples were only processed under identical HPLC circumstances. A UV-detector (Applied Biosystems, model 759A, Foster City, Calif.) was set for 226 nm detection. Isocratic elution was performed with 10 mM ammonium formate buffer, containing 0.2–0.8 mM tetrabutylammonium(TBA)formate and 1% acetonitrile (pH 7.2). Collected fractions were acidified with formic acid up to a final concentration of 100 mM and passed through C18 could phase extraction columns (J T Baker, Deventer, The Netherlands) in order to remove TBA.
[…] In addition, two hydroxyl-radical-generating systems with copper ions (Cu^2+) were used, consisting of 50 μM Cu^2+ with either 500 μM hydrogen peroxide or 5 mM ascorbic acid.
In the next series of experiments we studied the Fenton oxidation of UCA, representing another natural oxidation process. Trans-UCA and cis-UCA isomers were Fenton oxidized by ferorus ions (Fe^2+) and hydrogen peroxide at physiological concentrations. The initial hydrogen peroxide concentration was 500 μM and the ferrous ion concentration was varied from 0 to 500 μM. In all Fenton oxidation reactions the degree of UCA-isomer breakdown was calculated from their reduced peak areas. The oxidation reaction must have been completed within 2 minutes for all reaction conditions, because no further breakdown was observed after prolonged incubation.
When the Fenton reaction was performed in water instead of phosphate buffer, the oxidative breakdown of trans-UCA was enhanced irrespective of the UCA concentration. The turbidity seen in reactions performed in phoshate buffer (10 mM) with high Fe^2+ concentration (>100 μM) was probably due to the formation of insoluble, iron phosphate, thereby reducing the free availability of Fe^2+. Table 3 summarizes the difference between water and phosphate medium for trans-UCA at an initial concentration of 40 μM with respect to its breakdown and the formation of Fenton-oxidation products. Similarly to the photo-oxidation experiments, the peak areas of the 8 major oxidation products were summed. […] A close resemblance was observed between the chromatographic patterns of UCA Fenton oxidation products (not shown) and those of UCA photo-oxidation products. Three of them has been identified (vide infra).
In another series of experiments we studied the Fenton oxidation of UCA, representing another natural oxidation process. The initial hydrogen peroxide concentration was 500 μM in all experiments and the ferrous ion concentration was varied from 0 to 400 μM. Four sets of conditions were compared: […] in phosphate buffer pH 7.2, 2. Fe^2+ in phosphate buffer plus EDTA, 3. Fe^2− without buffer with a initial pH of 5.5–5.3 and 4. Cu^2+ in phosphate buffer plus ascorbate. The degree of breakdown was similar for both UCA isomers.

rat = conditions: oral rat; cited from earlier work
[4] = [SCAVENGER] = [DEOXYRIBOSE] = 3 Mm

| Structure (SMILES) | INHIBITION of DEOXYRIBOSE DEGRADATION [2, 4] | SECOND ORDER RATE CONSTANT for reaction with hydroxyl radicals [2] | hydroxyl radical scavenging ability (in words) [2] | other results |
| --- | --- | --- | --- | --- |
| O=C(O)C(=O)O [oxalic acid] | – | – | – | inhibition of CHS (in words) [1]: did not exhibit significant inhibition |
| O=C(O)/C=C\c1c[nH]cn1 [cis-Urocanic acid] | 64% | 7.1e+09 M⁻¹ s⁻¹ | – | second order rate constant in the particular set of FIG. 2 ([2]; single set of FIG. 2, kdR 3.1×10^9, [dR]=3 mM): 7.33 ×10^9 M^−1,s^−1; ear swelling ([1]; 1 g/l, maximum normalized to 100%): 31%; broken down by the unbuffered Fenton oxidation system ([3]; initial UCA concentration 250 μM, unbuffered): 75% |
| O=C(O)/C=C/c1ccco1 [trans-2-Furylacylic acid, trans-2-furylacrylic acid] | – | <1e+08 M⁻¹ s⁻¹ | very poor scavenging ability | INHIBITION of DEOXYRIBOSE DEGRADATION [2]: <2% |
| O=C(O)Cc1c[nH]cn1 [Imidazole-4acetic acid, imidazole-4-acetic acid] | 30% | 2.2e+09 M⁻¹ s⁻¹ | moderate scavenging ability | – |
| O=C(O)CCc1c[nH]cn1 [Dihydrourocanic acid, 3-(imidazol-4-yl)-propionic acid] | – | 3.7e+09 M⁻¹ s⁻¹ | moderate scavenging ability | INHIBITION of DEOXYRIBOSE DEGRADATION ([2]; 15 min, 3 mM, pH 7.2): 34% |
| O=c1[nH]c(=O)c2[nH]c(=O)[nH]c2[nH]1 [Uric acid, uric acid] | – | 2.78e+10 M⁻¹ s⁻¹ | – | INHIBITION of DEOXYRIBOSE DEGRADATION ([2]; 15 min, 3 mM, pH 7.2): 91% |
| C[C@H](N)C(=O)O [L-Alanine, L-alanine] | 2% | 1e+08 M⁻¹ s⁻¹ | – | – |
| Cc1ncc[nH]1 [2-Methylimidazole, 2-methylimidazole] | – | 1.17e+10 M⁻¹ s⁻¹ | stronger hydroxyl radical scavengers | INHIBITION of DEOXYRIBOSE DEGRADATION ([2]; 15 min, 3 mM, pH 7.2): 76%; LD50 (rat): 1500 mg/kg |
| O=CC(=O)O [Glyoxylic acid, glyoxylic acid] | – | – | – | inhibition of CHS (in words) [1]: did not exhibit significant inhibition |
| N[C@@H](Cc1c[nH]cn1)C(=O)O [L-Histidine, L-histidine] | 34% | 2.6^(c) × 10^9 M^−1 · s^−1 | – | rate constant for scavenging hydroxyl radicals [2]: 2.6e+09 M⁻¹ s⁻¹ |
| O=Cc1c[nH]cn1 [ImCHO, imidazole-4-carboxaldehyde] | – | – | – | yield of ImCOOH from ImCHO as starting material ([3]; after Fenton- or photooxidation): ~100% |
| c1c[nH]cn1 [imidazole] | – | – | stronger scavengers than the UCA isomers | – |
